# Values of other authors, collected in US20200368373A1, “OPTICAL IMAGING AGENTS TARGETING INFLAMMATION” (SORBONNE UNIVERSITE, priority 2018, published 2020).
# Target: T1, selectin E (Mus musculus, UniProt Q00690)
# T1 sequence (Q00690 22-612): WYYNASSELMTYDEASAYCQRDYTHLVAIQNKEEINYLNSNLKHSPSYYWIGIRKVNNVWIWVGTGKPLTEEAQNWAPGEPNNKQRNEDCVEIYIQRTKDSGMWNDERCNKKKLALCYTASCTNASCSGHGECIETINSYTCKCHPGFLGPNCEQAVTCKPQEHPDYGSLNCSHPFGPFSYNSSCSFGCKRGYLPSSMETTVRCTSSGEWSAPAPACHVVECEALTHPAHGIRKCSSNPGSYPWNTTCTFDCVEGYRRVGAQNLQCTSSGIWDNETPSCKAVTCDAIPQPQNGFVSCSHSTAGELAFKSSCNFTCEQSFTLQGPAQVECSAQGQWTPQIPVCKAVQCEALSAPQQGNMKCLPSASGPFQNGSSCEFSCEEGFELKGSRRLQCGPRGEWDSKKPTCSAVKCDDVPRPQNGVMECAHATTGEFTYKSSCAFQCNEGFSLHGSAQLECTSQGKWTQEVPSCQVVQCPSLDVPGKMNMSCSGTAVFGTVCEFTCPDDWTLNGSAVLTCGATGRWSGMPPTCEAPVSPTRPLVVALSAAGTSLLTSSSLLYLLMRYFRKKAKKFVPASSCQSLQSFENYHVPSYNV
# Details: known in the art
substance,measurement,value
Sialyl Lewis X,affinity for selectin E,high affinity
